Measured values from US20240325412A1, “COMBINATIONS” (Recurium IP Holdings, LLC, priority 2021, published 2024).

Legend:
HL-60 cells [1] = assay: CellTiter-Glo Luminescent Cell Viability Assay, HL-60; format: cell-based; conditions: Homo sapiens, 72 h, Compound (1A) 40 nM, Compound (B) 120 nM, Azacitidine 1500 nM, alone or combined
Protocol: (§1) Cell proliferation was measured using the CellTiter-Glo® Luminescent Cell Viability Assay. The assay involved the addition of a single reagent (CellTiter-Glo® Reagent) directly to cells cultured in serum-supplemented medium. OPM-2, MOLM-13 and HL-60 cells were cultured according to ATCC recommendations and were seeded at 10,000 cells per well.
(§2) Compound (1 A), Compound (B) and Dexamethasone or Azacitidine were prepared as a DMSO stock solution (10 mM). For OPM-2 cell line, compounds were tested in triplicate using Dexamethasone; MOLM-13 and HL-60 cell lines compound were tested in triplicate using Azacitidine. Plates were incubated at 37° C., 5% CO2 for 72 h and then equilibrated at room temperature (RT) for approximately 30 min. An equal-volume amount of CellTiter-Glo® Reagent (100 μL) was added to each well. Plates were mixed for 2 min on an orbital shaker to induce cell lysis and then incubated at RT for 10 min to stabilize the luminescent signal. Luminescence (RLU (relative light unit)) was recorded using a SpectraMAX, M5e plate reader according to CellTiter-Glo protocol. Percent inhibition was calculated using the following formula: % inhibition=(RLU*100/(RLU of the cell background)).

MOLM-13 cells = assay: CellTiter-Glo Luminescent Cell Viability Assay, MOLM-13; format: cell-based; conditions: Homo sapiens, 72 h, Compound (1A) 4 nM, Compound (B) 12 nM alone / 120 nM in combinations, Azacitidine 300 nM
Protocol: as §1, §2

HL-60 cells [2] = assay: HL-60 leukemia xenograft model; format: in vivo, Mice; conditions: HL-60 xenograft, Compound (1A) 25 mg/kg p.o. qd×21, Compound (B) 30 mg/kg p.o., azacitidine 1 mg/kg IP 5 days on 2 days off
Protocol: Mice were inoculated with HL-60 cells subcutaneously on the right flank with the single cell suspension of 95% viable tumor cells (1×10^7) in 100 μL IMDM Matrigel mixture (1:1 ratio) without serum for the tumor development. The treatment was started when the mean tumor size reached approximately 214 mm^3, with individual tumor size ranging from 185-245 mm^3. Animals were randomly distributed into treatment groups of 10 animals each and dosed with vehicle and indicated compounds at indicated dosage and frequency shown in FIG. 5 and Table 4. In FIG. 5, the bottom line is Compound (1A) 25 mg/kg p.o. qd×21+Compound (B) 30 mg/kg p.o. pd×21+azacitidine 1 mg/kg IP 5 days on 2 days off×3 cycle, the second from the bottom line is Compound (1A)+Compound (B), the third from the bottom line is Compound (1A)+azacytidine, the fourth from the bottom line is Compound (1A), the top line is Vehicle, the second from the top line is Compound (B), and the remaining two lines are azacytidine (indicated with triangles) and Compound (B)+azacytidine (indicated with diamonds). Tumor volumes were evaluated twice per week to calculate tumor volume over time, and mice were weighed twice per week as a surrogate for signs of toxicity. Tumor growth inhibition (TGI) was calculated using the following equation TGI=(1−(Td−T0)/(Cd−C0))×100%. Td and Cd are the mean tumor volumes of the treated and control animals, and T0 and C0 are the mean tumor volumes of the treated and control animals at the start of the experiment. The tumor regression was defined as individual tumor volume (TV) decrease (terminal TV compared to initial TV). FIG. 5 and Table 4 illustrate that single agent, double agent and triple treatment of Compound (1A) at 25 mg/kg, Compound (B) at 30 mg/kg and azacitidine at 1 mg/kg.

OPM-2 cells [3] = assay: OPM-2 multiple myeloma xenograft model; format: in vivo, Mice; conditions: OPM-2 xenograft, Compound (1A) 25 mg/kg, Compound (B) 30 mg/kg, Bortezomib 0.5 mg/kg (text: 100 and 60 mg/kg p.o. qd×21, IP BIW)
Protocol: Mice were inoculated with OPM-2 cells subcutaneously on the right flank with the single cell suspension of 95% viable tumor cells (1×10^7) in 100 μL IMDM Matrigel mixture (1:1 ratio) without serum for the tumor development. The treatment was started when the mean tumor size reached approximately 200 mm^3, with individual tumor size ranging from 185-225 mm^3. Animals were randomly distributed into treatment groups of 10 animals each and dosed with vehicle and indicated compounds at indicated dosage and frequency shown in FIG. 6 and Table 5. In FIG. 6, the bottom line is Compound (1A) 100 mg/kg p.o. qd×21+Compound (B) 60 mg/kg p.o. pd×21+Bortezomib 0.5 mg/kg IP BIW (twice a week)×3, the second from the bottom line is Compound (1A)+Compound (B), the third from the bottom line is Compound (B)+Bortezomib, the fourth from the bottom line is Compound (B), the top line is Vehicle, the second from the top is Bortezomib, the third from the top line (indicted with squares) is Compound (1A) and the fourth from the top line is Compound (1A)+Bortezomib. Tumor volumes were evaluated twice per week to calculate tumor volume over time, and mice were weighed twice per week as a surrogate for signs of toxicity. Tumor growth inhibition (TGI) was calculated using the following equation TGI=(1−(Td−T0)/(Cd−C0))×100%. Td and Cd are the mean tumor volumes of the treated and control animals, and T0 and C0 are the mean tumor volumes of the treated and control animals at the start of the experiment. The tumor regression was defined as individual tumor volume (TV) decrease (terminal TV compared to initial TV). FIG. 6 and Table 5 illustrate that single agent, double agent, and triple treatment of Compound (1A) at 100 mg/kg, Compound (B) at 60 mg/kg and bortezomib at 0.5 mg/kg.

OPM-2 cells [4] = assay: CellTiter-Glo Luminescent Cell Viability Assay, OPM-2; format: cell-based; conditions: Homo sapiens, 72 h, Compound (1A) 1500 nM, Compound (B) 300 nM, Dexamethasone 100 nM, alone or combined
Protocol: as §1, §2

KMS-12-BM cells = assay: KMS-12-BM multiple myeloma xenograft model; format: in vivo, Mice; conditions: KMS-12-BM xenograft, Compound (1A) 25 mg/kg, Compound (B) 30 mg/kg, Dexamethasone 1 mg/kg (text: 100 and 60 mg/kg)
Protocol: Mice were inoculated with KMS-12-BM cells subcutaneously on the right flank with the single cell suspension of 95% viable tumor cells (1×10^7) in 100 μL IMDM Matrigel mixture (1:1 ratio) without serum for the tumor development. The treatment was started when the mean tumor size reached approximately 193 mm^3, with individual tumor size ranging from 185-220 mm^3. Animals were randomly distributed into treatment groups of 10 animals each and dosed with vehicle and indicated compounds at indicated dosage and frequency shown in FIG. 7 and Table 6. In FIG. 7, the bottom line is Compound (1A) 100 mg/kg p.o. qd×21+Compound (B) 60 mg/kg p.o. pd×21+Dexamethasone 1 mg/kg IP 5 days on 2 days off ×3, the second from the bottom line is Compound (1A)+Compound (B), the third from the bottom line is Compound (B)+Dexamethasone, the fourth from the bottom line (indicated with triangles) is Compound (B), the top line is Vehicle, the second from the top line is Dexamethasone, the third from the top line is Compound (1A) and the remaining line is Compound (1A)+Dexamethasone. Tumor volumes were evaluated twice per week to calculate tumor volume over time, and mice were weighed twice per week as a surrogate for signs of toxicity. Tumor growth inhibition (TGI) was calculated using the following equation TGI=(1−(Td−T0)/(Cd−C0))×100%. Td and Cd are the mean tumor volumes of the treated and control animals, and T0 and C0 are the mean tumor volumes of the treated and control animals at the start of the experiment. The tumor regression was defined as individual tumor volume (TV) decrease (terminal TV compared to initial TV). The percent tumor regression was calculated using the formula: (1−(Td/T0))×100%.

[5] = test system: MDA-MB-436 cells (TNBC breast cancer cell line); assay: MDA-MB-436 triple negative breast cancer xenograft model; format: in vivo, Mice; conditions: MDA-MB-436 xenograft; Compound (1A) 200 mg/kg p.o. qd×40, Compound (B) 60 mg/kg p.o. qd×40; day 40
Protocol: Mice were inoculated with MDA-MB-436 cells (TNBC breast cancer cell line) subcutaneously on the right flank with the single cell suspension of 95% viable tumor cells (1×10^7) in 100 μL DMDM Matrigel mixture (1:1 ratio) without serum for the tumor development. The treatment was started when the mean tumor size reached approximately 210 mm^3 for each model (with individual tumor volumes between 180-240 mm^3). Animals were randomly distributed into treatment groups of 8 animals each and dosed with vehicle and indicated compounds at indicated dosage and frequency shown in FIG. 8 and Table 7. In FIG. 8, the top line (indicated with circles) is Vehicle control, the second from the top line (indicated with diamonds) is Compound (1A) (200 mg/kg 10 mL/kg p.o. qd×40) and the third line from the top (indicated with triangles) Compound (B) (60 mg/kg 10 mL/kg p.o. qd×40). The bottom line (indicated with circles) is Compound (1A) (200 mg/kg 10 mL/kg p.o. qd×40)+Compound (B) (60 mg/kg 10 mL/kg p.o. qd×40). Tumor volumes were evaluated twice per week to calculate tumor volume over time, and mice were weighed twice per week as a surrogate for signs of toxicity. Tumor growth inhibition (TGI) was calculated using the following equation TGI=(1−(Td−T0)/(Cd−C0))×100%. […]

## Nc1ncn([C@@H]2O[C@H](CO)[C@@H](O)[C@H]2O)c(=O)n1 [Azacitidine, reference compound]
HL-60 cells [1]
  inhibition at 1.5 µM: 2.3%
MOLM-13 cells
  inhibition at 0.3 µM: 10.7%
HL-60 cells [2]
  TGI % (DAY 18): 16%

## CC(C)C[C@H](NC(=O)[C@H](Cc1ccccc1)NC(=O)c1cnccn1)B(O)O [Bortezomib, reference compound]
OPM-2 cells [3]
  TGI % (DAY 17): 0%

## CC1(C)CCC(CN2CCN(c3ccc(C(=O)NS(=O)(=O)c4ccc(NC[C@H]5CC[C@](C)(O)CC5)c([N+](=O)[O-])c4)c(Oc4cnc5[nH]ccc5c4)c3)CC2)=C(C23CC(C(F)F)(C2)C3)C1 [Compound (1A)]
OPM-2 cells [4]
  inhibition at 1.5 µM: 43%
KMS-12-BM cells
  TGI % (DAY 14): 62.8%
HL-60 cells [1]
  inhibition at 0.04 µM: 20.4%
MOLM-13 cells
  inhibition at 0.004 µM: 35.4%
HL-60 cells [2]
  TGI % (DAY 18): 25%
OPM-2 cells [3]
  TGI % (DAY 17): 18%
[5]
  TGI %: 60%

## C=CCn1c(=O)c2cnc(Nc3ccc(N4CCN(C)CC4)cc3)nc2n1-c1ccc2c(n1)[C@@](O)(CC)CC2 [Compound (B)]
OPM-2 cells [4]
  inhibition at 0.3 µM: 4.3%
KMS-12-BM cells
  TGI % (DAY 14): 74.5%
HL-60 cells [1]
  inhibition at 0.12 µM: 5.6%
MOLM-13 cells
  inhibition at 0.012 µM: 38.6%
HL-60 cells [2]
  TGI % (DAY 18): 6%
OPM-2 cells [3]
  TGI % (DAY 17): 33%
[5]
  TGI %: 55%

## C[C@@H]1C[C@H]2[C@@H]3CCC4=CC(=O)C=C[C@]4(C)[C@@]3(F)[C@@H](O)C[C@]2(C)[C@@]1(O)C(=O)CO [Dexamethasone, reference compound]
OPM-2 cells [4]
  inhibition at 0.1 µM: 32%
KMS-12-BM cells
  TGI % (DAY 14): 22.5%
